From US12559454B2, “Benzenesulfonamide derivatives and uses thereof” (2692372 Ontario, Inc., priority 2019, dated 2026) come the findings set out here.

For one assay, the system named is K562 cells. Briefly: CellTiter-Blue cell viability, K562. The format is cell-based. The settings on record: Homo sapiens, 72 hrs exposure. As to the method:
(§1) Anti-cancer efficacy of exemplary compounds of this application was assessed in vitro in different cancer cell lines. Cell viability was examined following treatment at various concentration of inhibitor (0.097656-50 μM) using a cell Titer-Blue cell viability assay. 1×10^4 cells (NHF, MV4-11, K562 and MOLM-13 cells)/well were plated in 96-well assay plates in culture medium. All cells were grown in DMEM, IMDM and RPMI-1640 supplemented with 10% FBS. After 24 hrs, test compounds and vehicle controls were added to appropriate wells so the final volume was 100 μl in each well. The cells were cultured for the desired test exposure period (72 hrs) at 37° C. and 5% CO2. The assay plates were removed from 37° C. incubator and 20 μl/well of CellTiter-Blue® Reagent was added. The plates were incubated using standard cell culture conditions for 1-4 hours and the plates were shaken for 10 seconds and record fluorescence at 560/590 nm.
On the technique in general: Resazurin is reduced to fluorescent resorufin, in cell work by metabolically active cells.

In the next assay the test system is tubulin. Briefly: Tubulin polymerization assay. It is filed as biochemical. To be noted: for % Inhibition: Vmax normalized to tubulin only control; for % D.O.P.: degree of polymerization relative to tubulin control. Here is the method: A96-well half-area clear flat-bottom microplate (Corning® #3697) was pre-heated in a plate reader (Cytation 3, BioTek) at 37° C. for 15 minutes prior to the start of each assay. Tubulin polymerization buffer (80 mM PIPES pH 6.9, 2 mM MgCl2, 0.5 mM EGTA, 15% glycerol, 1 mM GTP) was prepared from stock solutions and placed on ice. Inhibitors were prepared to M concentrations in buffer (80 mM PIPES pH 6.9, 2 mM MgCl2, 0.5 mM EGTA, 5% DMSO) from DMSO stock solutions. After the assay plate was pre-warmed, 10 μL of inhibitor or buffer control was added to selected wells. Every assay contained a tubulin only negative control for normalization of data, and a batabulin positive control. The assay plate was incubated at 37° C. for 3 minutes. During this time, a frozen aliquot of tubulin (10 mg/mL) in buffer (80 mM PIPES pH 6.9, 2 mM MgCl2, 0.5 mM EGTA) was defrosted by placing in a room temperature water bath. Once thawed, 200 μL of tubulin was mixed with 420 μL ice cold tubulin polymerization buffer (3 mg/mL tubulin in 80 mM PIPES, pH 6.9, 2 mM MgCl2, 0.5 mM EGTA, 1 mM GTP, 10.2% glycerol). To a 96-well plate on ice, aliquots of 100 μL tubulin was added to each well. From this plate, 90 μL of tubulin was immediately pipetted into all sample wells of the warmed assay plate using a multi-channel pipette. The assay plate was immediately put in the reader at 37° C. and shook for 5 s with orbital shaking at medium speed. The reader recorded the absorbance at 340 nm every 15 s for 30 min.
The resulting absorbance curves were normalized by subtracting each data point by the absorbance at time 0.
The largest change in absorbance over the assay time course was also recorded and related to the tubulin control as the % degree of polymerization (% D.O.P.).

The subject of another assay is MOLM-13 cells. Briefly: CellTiter-Blue cell viability, MOLM-13. The settings on record: Homo sapiens, 72 hrs exposure. It is filed as cell-based. As to the method:
as §1

A further assay has as its system MV4-11 cells. Briefly: CellTiter-Blue cell viability, MV-4-11. To be noted: Homo sapiens, 72 hrs exposure. The format is cell-based. Here is the method: as §1

Where only a bound is given, the exact number is not on record here.

By IC50 is commonly meant the concentration that inhibits the measured activity by half. In the case of `CN(C)S(=O)(=O)c1c(F)c(F)c(F)c(F)c1F` [Compound I-1, 2,3,4,5,6-pentafluoro-N,N-dimethylbenzenesulfonamide], the concentration for half-maximal inhibition (IC50) was greater than 10 µM with K562 cells, 1 to 10 µM in the assay with MOLM-13 cells and 1 to 10 µM in the assay on MV4-11 cells. Also, the “% Inhibition” value in the assay on tubulin was “A (<10%)”. The “% D.O.P.” value in the assay on tubulin is listed as “A (>85%)”.
For the compound `CN(C)S(=O)(=O)c1c(F)c(F)c(F)c(F)c1OCc1ccccc1` [Compound I-2, 2-(benzyloxy)-3,4,5,6-tetrafluoro-N,N-dimethylbenzenesulfonamide], the half-inhibitory concentration (IC50) in the assay with K562 cells was greater than 10 µM; with MOLM-13 cells it was 1 to 10 µM; in the assay with MV4-11 cells, 0.1 to 1 µM.
Take `CCOc1c(F)c(F)c(F)c(F)c1S(=O)(=O)N(C)C` [Compound I-5, 2-ethoxy-3,4,5,6-tetrafluoro-N,N-dimethylbenzenesulfonamide]: the IC50 in the assay on K562 cells and with MOLM-13 cells was greater than 10 µM throughout.
In the case of `CC(C)Oc1c(F)c(F)c(F)c(F)c1S(=O)(=O)N(C)C` [Compound I-6, 2,3,4,5-tetrafluoro-6-isopropoxy-N,N-dimethylbenzenesulfonamide], the half-inhibitory concentration (IC50) was greater than 10 µM with K562 cells, 1 to 10 µM in the assay on MOLM-13 cells and 1 to 10 µM in the assay on MV4-11 cells.
With `CN(C)S(=O)(=O)c1c(F)c(F)c(F)c(F)c1OC(F)F` [Compound I-8, 2-(difluoromethoxy)-3,4,5,6-tetrafluoro-N,N-dimethylbenzenesulfonamide], the IC50 in the assay on K562 cells was greater than 10 µM; in the assay with MOLM-13 cells it was greater than 10 µM; in the assay on MV4-11 cells, 1 to 10 µM.
On to `CN(C)S(=O)(=O)c1c(F)c(F)c(F)c(F)c1OCc1ccc(F)cc1F` [Compound I-16, 2-((2,4-difluorobenzyl)oxy)-3,4,5,6-tetrafluoro-N,N-dimethylbenzenesulfonamide], for which the IC50 was greater than 10 µM in the assay on K562 cells, 1 to 10 µM in the assay on MOLM-13 cells and 0.1 to 1 µM in the assay on MV4-11 cells.
On to `CN(C)S(=O)(=O)c1c(F)c(F)c(F)c(F)c1OCc1ccncc1` [Compound I-17, 2,3,4,5-tetrafluoro-N,N-dimethyl-6-(pyridin-4-ylmethoxy)benzenesulfonamide], for which the 50% inhibitory concentration (IC50) is greater than 10 µM in the assay on K562 cells and 1 to 10 µM with MOLM-13 cells.
For the compound `CN(C)S(=O)(=O)c1c(F)c(F)c(F)c(F)c1OCc1ccc(C(N)=O)cc1` [Compound I-18, 4-((2-(N,N-dimethylsulfamoyl)-3,4,5,6-tetrafluorophenoxy)methyl)benzamide], the results for the IC50 in the assay with K562 cells, with MOLM-13 cells and in the assay on MV4-11 cells were greater than 10 µM, 1 to 10 µM and 1 to 10 µM, respectively.
Take `CN(C)S(=O)(=O)c1c(F)c(F)c(F)c(F)c1OCc1ccccn1` [Compound I-19, 2,3,4,5-tetrafluoro-N,N-dimethyl-6-(pyridin-2-ylmethoxy)benzenesulfonamide]: the IC50 in the assay with K562 cells was greater than 10 µM; in the assay on MOLM-13 cells it was 1 to 10 µM; with MV4-11 cells, 1 to 10 µM.
Consider `CN(C)S(=O)(=O)c1c(F)c(F)c(F)c(F)c1OC(=O)C(C)(C)C` [Compound I-20, 2-(N,N-dimethylsulfamoyl)-3,4,5,6-tetrafluorophenyl pivalate], for which the IC50 in the assay on K562 cells was greater than 10 µM; with MOLM-13 cells it was 1 to 10 µM.
For `CN(C)S(=O)(=O)c1c(F)c(F)c(F)c(F)c1OC(=O)OC(C)(C)C` [Compound I-21, tert-butyl (2-(N,N-dimethylsulfamoyl)-3,4,5,6-tetrafluorophenyl) carbonate], the IC50 in the assay with K562 cells, in the assay on MOLM-13 cells and in the assay with MV4-11 cells was greater than 10 µM each time.
In the case of `CC(C)S(=O)(=O)Oc1c(F)c(F)c(F)c(F)c1S(=O)(=O)N(C)C` [Compound I-22, 2-(N,N-dimethylsulfamoyl)-3,4,5,6-tetrafluorophenyl propane-2-sulfonate], the IC50 in the assay on K562 cells is greater than 10 µM; in the assay on MOLM-13 cells it was 1 to 10 µM.
Take `CN(C)S(=O)(=O)c1c(F)c(F)c(F)c(F)c1Cc1ccccc1` [Compound I-24, 2-benzyl-3,4,5,6-tetrafluoro-N,N-dimethylbenzenesulfonamide]: the figures for the IC50 in the assay with K562 cells, with MOLM-13 cells and in the assay on MV4-11 cells were greater than 10 µM, 1 to 10 µM and 1 to 10 µM, respectively.
In the case of `Cc1c(F)c(F)c(F)c(F)c1S(=O)(=O)N(C)C` [Compound I-25, 2,3,4,5-tetrafluoro-N,N,6-trimethylbenzenesulfonamide], the IC50 was greater than 10 µM in the assay with K562 cells and 1 to 10 µM with MOLM-13 cells.
Consider `CC(=O)c1c(F)c(F)c(F)c(F)c1S(=O)(=O)N(C)C` [Compound I-26, 2-acetyl-3,4,5,6-tetrafluoro-N,N-dimethylbenzenesulfonamide], for which the IC50 was greater than 10 µM with K562 cells, 1 to 10 µM with MOLM-13 cells and 1 to 10 µM in the assay on MV4-11 cells.
On to `COC(=O)c1c(F)c(F)c(F)c(F)c1S(=O)(=O)N(C)C` [Compound I-31, methyl 2-(N,N-dimethylsulfamoyl)-3,4,5,6-tetrafluorobenzoate], for which the IC50 in the assay on K562 cells was greater than 10 µM; with MOLM-13 cells, 1 to 10 µM; in the assay with MV4-11 cells, 0.1 to 1 µM.
Take `CC(C)COC(=O)c1c(F)c(F)c(F)c(F)c1S(=O)(=O)N(C)C` [Compound I-32, isobutyl 2-(N,N-dimethylsulfamoyl)-3,4,5,6-tetrafluorobenzoate]: the IC50 is greater than 10 µM with K562 cells, 1 to 10 µM in the assay with MOLM-13 cells and 0.1 to 1 µM in the assay on MV4-11 cells.
For `CN(C)C(=O)c1c(F)c(F)c(F)c(F)c1S(=O)(=O)N(C)C` [Compound I-37, 2-(N,N-dimethylsulfamoyl)-3,4,5,6-tetrafluoro-N,N-dimethylbenzamide] the same measures were greater than 10 µM, 1 to 10 µM and 1 to 10 µM.
For `CN(C)S(=O)(=O)c1c(F)c(F)c(F)c(F)c1C1CC1` [Compound I-39, 2-cyclopropyl-3,4,5,6-tetrafluoro-N,N-dimethylbenzenesulfonamide] the same measures were greater than 10 µM, 1 to 10 µM and 1 to 10 µM.
On to `CN(C)S(=O)(=O)c1c(F)c(F)c(F)c(F)c1NCc1ccccc1` [Compound I-48, 2-(benzylamino)-3,4,5,6-tetrafluoro-N,N-dimethylbenzenesulfonamide], for which the IC50 in the assay with K562 cells is greater than 10 µM; in the assay with MOLM-13 cells, 1 to 10 µM; with MV4-11 cells, 1 to 10 µM.
For the compound `CNc1c(F)c(F)c(F)c(F)c1S(=O)(=O)N(C)C` [Compound I-49, 2,3,4,5-tetrafluoro-N,N-dimethyl-6-(methylamino)benzenesulfonamide], the IC50 in the assay with K562 cells was greater than 10 µM; with MOLM-13 cells it was 1 to 10 µM; with MV4-11 cells, 1 to 10 µM.
With `CN(C)S(=O)(=O)c1c(F)c(F)c(F)c(F)c1Nc1cccnc1` [Compound I-52, 2,3,4,5-tetrafluoro-N,N-dimethyl-6-(pyridin-3-ylamino)benzenesulfonamide], the IC50 is 1 to 10 µM in the assay on K562 cells, greater than 10 µM in the assay with MOLM-13 cells and 1 to 10 µM in the assay with MV4-11 cells.
In the case of `CN(C)S(=O)(=O)c1c(F)c(F)c(F)c(F)c1NCC(F)F` [Compound I-54, 2-((2,2-difluoroethyl)amino)-3,4,5,6-tetrafluoro-N,N-dimethylbenzenesulfonamide], the half-maximal inhibitory concentration (IC50) in the assay with K562 cells is greater than 10 µM; in the assay with MOLM-13 cells, 1 to 10 µM; in the assay on MV4-11 cells, 1 to 10 µM.
Regarding `COc1ccc(NS(=O)(=O)c2c(F)c(F)c(F)c(F)c2Oc2ccccc2)cc1F` [Compound I-76, 2,3,4,5-tetrafluoro-N-(3-fluoro-4-methoxyphenyl)-6-phenoxybenzenesulfonamide], the IC50 with K562 cells was 0.1 to 1 µM. For the same compound, in the assay with tubulin, the “% Inhibition” value is given as “C (>20%)” and the “% D.O.P.” value was “B (< 85%)”. The compound further had a half-maximal inhibitory concentration (IC50) in the assay on MOLM-13 cells of 1 to 10 µM.
As to `COc1ccc(NS(=O)(=O)c2c(F)c(F)c(F)c(F)c2OC(F)(F)F)cc1F` [Compound I-84, 2,3,4,5-tetrafluoro-N-(3-fluoro-4-methoxyphenyl)-6-(trifluoromethoxy)benzenesulfonamide], in the assay on tubulin, the “% Inhibition” value is “C (>20%)” and the “% D.O.P.” value is “B (< 85%)”. This compound also came in with an IC50 in the assay with MOLM-13 cells of no more than 0.1 µM. In the assay with MV4-11 cells, this compound displayed a 50% inhibitory concentration (IC50) of no more than 0.1 µM.
Regarding `COc1ccc(NS(=O)(=O)c2c(F)c(F)c(F)c(F)c2C(=O)O)cc1F` [Compound I-92, 2,3,4,5-tetrafluoro-6-(N-(3-fluoro-4-methoxyphenyl)sulfamoyl)benzoic acid], the 50% inhibitory concentration (IC50) in the assay with K562 cells was greater than 10 µM; in the assay with MOLM-13 cells, 1 to 10 µM; in the assay with MV4-11 cells it was 0.1 to 1 µM.
